Assay results as given in patent US6710090B2, “Inhibitory or blocking agents of molecular generating and/or inducing functions” (priority 1994, dated 2004).

Key:
[1] = biological target: T1, Recombinant Taq DNA Polymerase (Thermus aquaticus, UniProt P19821); assay: PCR with polymerase enzymes treated with Yoshixol; format: biochemical
T1 construct: purchased TaKaRa Shuzo Co., Otsu city R001A
Procedure: (§1) Effect of Yoshixol on PCR was investigated by DNA template which was extracted from snake (blue-green snake, captured at Matsumoto city, Nagano). The new synthesized dimer of (SEQ ID NO: 2) (5′>CTTCGGGCTTCGGG<3′) with 7 base-pair alignment (CTTCGGG) above-mentioned was used as a primer. PCR reaction was done by use of DNA thermal cycler (PJ-2000) made in PERKIN ELMER CETUS company. The following six combinations were prepared for the test samples. Those are two kinds of samples which consist of 5 μl of primer (100 pico mole/μl) with 5 μl of Yoshixol (P+) and without Yoshixol (P−). In addition, two kinds of samples which consist of 5 μl. of snake DNA (500 ng/μl) with 5 μl of Yoshixol (D+) and without Yoshixol (D−). And, additional two kinds of samples which consist of 1 μl of polymerase enzymes (Recombinant Taq DNA Polymerase, No. R001A, TaKaRa Shuzo Co., Otsu city: 5 unit/pd) with 1 μl of Yoshixol (Pm+) and without Yoshixol (Pm−). After each sample was placed for 10 minutes at room temperature, each sample was diluted in distilled water. And, it is adjusted in a primer solution of 10 picomole/μl, DNA solution of 50 ng/μl and a polymerase enzymes solution of 0.5 unit/μl. Then, the following combinations were prepared. […] In each combination, amount of cDNA synthesis was amplified by a PCR method and was measured. […]

vasopressin = biological target: T2, vasopressin (Homo sapiens, UniProt P01185); assay: Physiological function of vasopressin treated with Yoshixol, blood pressure; format: in vivo; conditions: rabbit, intravenous vasopressin 100 ng/Kg treated with Yoshixol 4 μl; untreated vasopressin 15-25 mmHg
T2 construct: Effect on Physiological Function of Vasopressin and Insulin as Peptides; purchased Sigma Co. Saint Louis, Mo., USA
Procedure: Each vasopressin and insulin has a physiological effect such as a rise of blood pressure and a fall of sugar level in blood respectively. An effect of Yoshixol on these physiological functions was investigated and compared by injection of each hormone without or with treatment with Yoshixol in rabbit in vivo. When vasopressin (100 ng/Kg, Sigma Co. Saint Louis, Mo., USA) without treatment with Yoshixol was injected intravenously, blood pressure increased by 15-25 mmHg so that this increased level was maintained for about 25 minutes. But, vasopressin (100 ng/Kg) treated with Yoshixol (4 μl) caused a increase in blood pressure of only about 5 mmHg (referred FIG. 6).

human blood serum = assay: Composition of amino acids in human blood serum; format: biochemical; conditions: Yoshixol 4 μl
Procedure: Changes in composition of amino acids were analyzed by use of 1 ml of human blood serum, 1 ml of human fibrinogen (concentration of 160 mg/dl), 1 ml of human thrombin before and after treatment with Yoshixol (4 μl). The total amino acids in the human blood serum which was treated with Yoshixol decreased by 41%. And, ratio of each composition was altered after the treatment so that as an example the concentration of phosphoserine increased about 20 times which level was from 7.2 picomole to 164.8 picomole.

[2] = system: primer (SEQ ID NO: 2) and snake DNA; assay: PCR with primer or DNA template treated with Yoshixol; format: biochemical
Procedure: as §1

[3] = system: human defibrinized serum, bovine albumin, human fibrinogen, myoglobin, anti-A blood type serum and anti-B blood type serum; assay: Primary structure of proteins, electrophoretic analysis of non-SDS wide page; format: biochemical; conditions: 1 ml protein solutions, Yoshixol 4 μl, heated denaturation
Procedure: Changes in molecular weight composition of the following macromolecular proteins (1 mole solution) before and after treatment with Yoshixol (4 μl) were investigated after heated denaturation by electrophoretic analysis of non-SDS wide page. The used macromolecules proteins solutions of 1 ml are human defibrinized serum, bovine albumin, human fibrinogen, myoglobin, anti-A blood type serum and anti-B blood type serum (Green Cross Co.). Even after treatment with Yoshixol, distribution of molecular weights on electrophoretic analysis was identical to that of the macromolecules proteins which is not treated (referred FIG. 7).

`C=C1CC(C)(C)C=CC1=O` [Yoshixol, 4,4-dimethyl-6-methylene-2-cyclohexen-1-one] was tested, and the “PCR bounds, group P−, D−, Pm+” value ([1]; 1 μl polymerase with 1 μl of Yoshixol, untreated 4 bounds between 0.5 and 1.2 kb) was “only one bound at lowest molecular weight within 4 bounds was appeared”, the “PCR bounds, group P−, D−, Pm+A” value ([1]; concentration of Yoshixol for the polymerase increased to 100 times) was “any kind of bounds did not observe” and the “increase in blood pressure” value (vasopressin) was “about 5 mmHg”. For the same compound, the “decrease of total amino acids in human blood serum” value (human blood serum; 1 ml human blood serum) was 41%, the “increase of concentration of phosphoserine” value (human blood serum; human blood serum) was “about 20 times” and the “concentration of phosphoserine after treatment” value (human blood serum; human blood serum, before 7.2 picomole) was 164.8 picomole. The “PCR bounds versus P−, D−, Pm−, group P+, D−, Pm−” value ([2]; only primer processed by Yoshixol (5 μl with 5 μl)) was “did not differ”, the “PCR bounds versus P−, D−, Pm−, group P−, D+, Pm−” value ([2]; only snake DNA processed by Yoshixol (5 μl with 5 μl)) was “did not differ” and the “distribution of molecular weights on electrophoretic analysis versus not treated” value [3] was “identical”.
